Values after ≈ are worked out from the molar mass of the structure shown. “Also recorded” adds a separate entry of the source. Where a name gives a salt, the structure may show the parent alone.
Columns and labels:
human PANK3 = biological target: T1, human PANK3 (Homo sapiens, UniProt Q9H999); experiment: PANK activity assay (radiochemical, without acetyl-CoA); assay type: biochemical
T1 construct: His; made in house

PAMPA-BBB = assay type: in vitro ADME; settings: BBB = Blood Brain Barrier, read-out: PAMPA-BBB, Avg Pe
Caco2 permeability = assay type: in vitro ADME; settings: human, Caco-2; read-out: Caco2 Permeability Efflux Ratio (B2A/A2B)
C3A cells = experiment: Intracellular CoA and metabolite levels in C3A cells; assay type: cell-based, human
Procedure: HEK293T cells (ATCC, #CRL-3216) were maintained in Dulbecco’s modified Eagle’s medium (DMEM, Biowhittaker/Lonza) supplemented with 10% FCS. Human C3A [HepG2/C3A, derivative of HepG2] cells (ATCC #CRL-10741) were purchased from ATCC® and maintained in Eagle’s minimum Essential medium (ATCC) supplemented with 2 mM glutamine, 10% fetal bovine serum (FCS, Altanta Biologicals), 50 U/ml penicillin and […] streptomycin. Both cell lines were confirmed to be mycoplasma-free. […]. […] After 24 h of treatment (total 48 h after transfection) the cells were washed with PBS and harvested and subjected to either total CoA or acetyl-CoA determinations.
Prior to labeling, cells were seeded at a density of 2–3 × 10^6 in 60 mm-dishes in reconstituted DMEM without added pantothenate and allowed to adhere overnight. The labeling was initiated by replacing the medium with 2 ml of labeling medium containing 0.1% dimethylsulfoxide (DMSO; control) or 10 μM of the compound in 0.1% DMSO. Cells were incubated for 24 h, the labeling medium was removed, and cells were washed with phosphate buffered saline and lysed by sonication in 20 mM Tris-HCl, pH 7.5, 2 mM DTT, 5 mM EDTA and 50 mM NaF. The lysates were fractionated by thin-layer chromatography after removal of the cell debris by centrifugation. The samples were spotted on Silica Gel H plates and resolved with 95% ethanol:28% ammonium hydroxide (4/1, v/v). The distribution of radioactivity on the plate was quantified using a Bioscan Imager (Bioscan, Inc.) together with quantification of the total cellular radioactivity determined by a Liquid Scintillation Analyzer (PerkinElmer Tri-Carb 2910 TR). Triplicate culture dishes were labeled for each group plus a dish for each group for determination of cell counts and viability using a Nucleocounter (New Brunswick Scientific) according to the manufacturer’s directions. The experiments were repeated twice in duplicate and the data represented is an overall average ± SEM.
Cultured cells or frozen tissues were resuspended in 2 ml cold water to which 500 μl of 0.25 M KOH was added, derivatized with monobromobimane (mBBr, Life technologies) and quantified by HPLC[23]. For acetyl-CoA determinations, C3A cells were resuspended in 1 ml water, added to 2 ml of methanol and 1 ml chloroform, and incubated on ice for 15 min. Chloroform 1.5 ml, 1.2 ml water and 30 pmol of [^13C2]acetyl-CoA (Sigma) was added, and centrifuged at 2000×g for 10 min. The top layer was loaded on a 2-(2-pyridyl) ethyl solid phase extraction column which was equilibrated with 1 ml 50% methanol/2% acetic acid. The column was washed twice with 1 ml 50% methanol/2% acetic acid and 1 ml water. CoA and thioesters were eluted twice with 1 ml 95% ethanol containing 50 mM ammonium hydroxide. Samples were resuspended in 90% methanol containing 15 mM ammonium hydroxide.
The mBBr derivatized sample was fractionated by reverse-phase HPLC using a Gemini C18 3 μm column (150 × 4.60 mm) from Phenomenex. The chromatography system was a Waters e2695 separation module with a UV/Vis and fluorescence detector and controlled by Empower 3 software. Solvent A was 50 mM potassium phosphate pH 4.6, and solvent B was 100% acetonitrile. Twenty microliters of sample was injected onto the column, and the flow rate was 0.5 ml/min. The HPLC program was the following: starting solvent mixture of 90% A/10% B, 0–2 min isocratic with 10% B, 2–6 min linear gradient from 10% B to 15% B, 6–18 min concave gradient from 15% B to 40% B, 18–23 min isocratic with 40% B, 23–25 min linear gradient from 40 to 10%, and 25–30 min isocratic with 10% B. The UV/vis detector was set at 393 nm, and the fluorescence detector was set with excitation at 393 nm and emission at 470 nm. […]

Protein binding [1] = settings: rat
Microsomal stability [2] = settings: mouse, microsomes
Protein binding [3] = settings: mouse
Plasma stability [4] = assay type: in vitro ADME; settings: rat, read-out: Plasma Stability T1/2 (converted)
Protein binding [5] = settings: human
Plasma stability [6] = assay type: in vitro ADME; settings: mouse, read-out: Plasma Stability T1/2
Plasma stability [7] = assay type: in vitro ADME; settings: human, read-out: Plasma Stability T1/2
Microsomal stability [8] = settings: human, microsomes
Microsomal stability [9] = settings: rat, microsomes
HEK293T cells = experiment: Intracellular CoA levels in transfected HEK293T cells; assay type: cell-based, human; settings: 10 μM, 24 h
[10] = Tissue pantothenate levels in mice; assay type: in vivo; settings: C57Bl6/J, mouse, liver; 200 mg/kg pantothenate by oral gavage, 4 h after last of 5 doses; read-out: calculated intracellular pantothenate concentration in liver
Procedure: Plasma (10 μl) was added to 800 μl methanol and 190 μl water along with 200 pmol (β-alanyl-^13C3^15N)-pantothenate (^13C^15N-Pan, Sigma). Tissue (30–40 mg) was homogenized in 2 ml of 80% methanol, and 500 pmol of ^13C^15N-Pan was added. The samples were incubated at −80 °C for 4 h. Samples were spun at 3500xg for 10 min to pellet debris, and supernatant was transferred to a new tube and dried using a SpeedVac overnight. Samples were resuspended in water + 0.1% formic acid and spun through a Spin-X Centrifuge Tube Filter (0.22 μm Cellulose Acetate, Costar).
Pantothenate was analyzed using a Shimadzu Prominence UFLC attached to a QTrap 4500 equipped with a Turbo V ion source (Sciex). Samples were injected onto an XSelect® HSS C18, 2.5 μm, 2.1 × 150 mm column using a flow rate of 0.2 ml/min. Solvent A was 0.1% formic acid in water, and Solvent B was acetonitrile + 0.1% formic acid. […] The MRM transition for pantothenate was 220.0 / 184.1 m/z and [^13C^15N]pantothenate was 224.0 / 188.1 m/z both with a declustering potential, 35 V and collision energy, 22 V. The system was controlled by the Analyst® software (Sciex) and analyzed with MultiQuant™ 3.0.2 software (Sciex). Intracellular pantothenate was measured as pmoles/mg wet weight.

T1 sequence (Q9H999 whole entry): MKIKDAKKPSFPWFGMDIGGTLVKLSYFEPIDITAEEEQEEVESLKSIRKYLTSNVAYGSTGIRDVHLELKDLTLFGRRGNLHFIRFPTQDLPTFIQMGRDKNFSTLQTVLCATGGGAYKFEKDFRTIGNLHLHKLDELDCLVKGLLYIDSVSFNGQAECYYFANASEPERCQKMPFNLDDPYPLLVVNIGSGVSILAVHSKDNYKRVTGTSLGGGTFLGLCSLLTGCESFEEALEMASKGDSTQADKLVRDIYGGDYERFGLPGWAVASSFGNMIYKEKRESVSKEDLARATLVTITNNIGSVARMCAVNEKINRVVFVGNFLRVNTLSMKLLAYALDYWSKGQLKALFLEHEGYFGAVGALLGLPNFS

IC50 (human PANK3) | inhibition of PANK3 (in words) (human PANK3; negative control) | efflux ratio (Caco2 permeability) | fraction unbound (Protein binding [3]) | fraction unbound (Protein binding [5]) | concentration at 4 h [10] | Structure (SMILES) | Papp (PAMPA-BBB) | PAMPA; Avg Pe (PAMPA) | total intracellular CoA levels in C3A cells (C3A cells; 24 h, increasing concentrations (20 and 50 μM less activating)) | fraction unbound (Protein binding [1]) | half-life (Microsomal stability [2]) | half-life (Plasma stability [4]) | half-life (Plasma stability [6]) | half-life (Plasma stability [7]) | half-life (Microsomal stability [8]) | half-life (Microsomal stability [9]) | intracellular CoA, PANK3 overexpressing HEK293T cells (HEK293T cells) | solubility (Solubility at pH 7.4) | CoA content of C3A cells on varying pantothenate in medium (C3A cells; pantothenate alone, without PZ-2891)
> 100 µM | no effect; also recorded: Inactive | 0.5 | 0.04 | 0.04 | – | CC(C)c1ccc(C(=O)CN2CCN(c3ccc(C#N)nn3)CC2)cc1 [PZ-3067, 6-(4-(2-(4-isopropylphenyl)-2-oxoethyl)piperazin-1-yl)pyridazine-3-carbonitrile] | 0.8 ×10⁻⁶ cm/s | 204 10-6 cm/s | did not respond | 0.1 | 30.6 min | 27 h | > 50 h | > 50 h | 9 min | 13.2 min | inactive | 18 µM (≈ 6.29 µg/mL) | –
– | – | – | – | – | 24.4 µM | CC(C)(CO)[C@@H](O)C(=O)NCCC(=O)O [pantothenate, D-pantothenic acid, hemicalcium salt] | – | – | – | – | – | – | – | – | – | – | – | – | no effect on CoA content
– | – | – | – | – | – | CC(C)(C)c1ccc(NC(=O)N2CCN(c3ccc(C#N)cn3)CC2)cc1 [PZ-2789, N-(4-(tert-butyl)phenyl)-4-(5-cyanopyridin-2-yl)piperazine-1-carboxamide] | 303 ×10⁻⁶ cm/s | 1232 10-6 cm/s | – | 0.02 | 15.6 min | > 50 h | > 50 h | > 50 h | 7.8 min | 30.6 min | – | 1.4 µM (≈ 0.509 µg/mL) | –
– | – | – | – | – | – | CC(C)c1ccc(CC(=O)N2CCN(c3ccc(C#N)cn3)CC2)cc1 [PZ-2863] | – | – | – | – | – | – | – | – | – | – | – | 25 µM (≈ 8.71 µg/mL) | –
